One assay has as its system Murine colon C26 cells. The assay can be described thus: Tumor cell proliferation assay (ATP Lite), C26. Format: cell-based. The following applies: Mus musculus, 96 h, 4 days. Here is the method:
(§1) Assay 2: Tumor Cell Proliferation Assays (ATP Lite)
(§2) Murine colon C26, human melanoma A375 and MeI5 or human pancreatic MiaPaCa-2 cells were plated in 96 well Corning white plates (1500 cells/well for C26, and 2000 cells/well for A375, and MiaPaCa-2) and cultured overnight at 37° C. in 5% CO2. Inhibitors were serially diluted in 100% DMSO and subsequently added to cells to reach a final concentration of 0.25% DMSO. The cells were incubated for 4 days in the presence of test compounds in cell growth media (DMEM with 10% fetal bovine serum, 2 mM glutamine for C26, and MiaPaCa-2, and RPMI with 10% fetal bovine serum, 2 mM glutamine for A375). Cell proliferation was quantitated using the ATP lite cell proliferation kit (Packard). Columns 4-6 show the concentration of compounds required to induce 50% cell death (IC50 in μM) of […]. With “+” meaning 3 μM<IC50≦10 μM and “++” IC50≦3 μM and “n.d.” means not determined. Few compounds were also tested on human melanoma cell MeI5.

For the next assay, the target named is human MEK1 (Homo sapiens, UniProt Q02750). The experiment in a line: MEK-1 Enzyme Assay (LANCE-HTRF). Type of assay: biochemical. Conditions: 100 nM MEK1, 15 μM ATP, 300 nM ERK2, two hours; read-out: MEK inhibition. Here is the method: Assay 1: MEK-1 Enzyme Assay (LANCE-HTRF)
Sequence of human MEK1 (Q02750 whole entry): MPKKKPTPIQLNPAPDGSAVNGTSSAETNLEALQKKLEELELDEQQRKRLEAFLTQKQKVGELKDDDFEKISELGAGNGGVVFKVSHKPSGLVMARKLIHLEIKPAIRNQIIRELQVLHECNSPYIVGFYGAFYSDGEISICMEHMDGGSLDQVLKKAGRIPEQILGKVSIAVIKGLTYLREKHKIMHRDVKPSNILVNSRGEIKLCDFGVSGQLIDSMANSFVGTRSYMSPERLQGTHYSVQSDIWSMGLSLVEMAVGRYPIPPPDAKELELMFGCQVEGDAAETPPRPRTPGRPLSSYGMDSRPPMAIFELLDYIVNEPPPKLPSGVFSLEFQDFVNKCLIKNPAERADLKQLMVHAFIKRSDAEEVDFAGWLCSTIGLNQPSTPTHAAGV
The activity of the compounds of the present invitation may be determined by the following procedure; Inhibition of human MEK1 kinase activity was monitored with a homogenous, fluorescence based assay. The assay uses time resolved fluorescence resonance energy transfer to probe for phosphorylation of ERK1 by MEK1. The assay is carried out in low volume 96 well microtiterplates. […] After two hours, 5 nM Europium-anti-PY20 (Perkin Elmer) and 50 nM Anti-GST-Allophycocyanin (CisBio) in buffer containing 50 mM EDTA and 0.05% BSA are added and the reaction incubated for one hour in the dark. Time-resolved fluorescence is measured using a LJL-Analyst (Molecular Devices) with an excitation wavelength of 340 nm and an emission wavelength of 665 nm. The final concentration of DMSO is 2%.
In general terms: In TR-FRET formats the signal depends on donor and acceptor labels being close together.

The subject of assay [1] is human melanoma A375 cells. The assay can be described thus: Tumor cell proliferation assay (ATP Lite), A375. The following applies: A-375, 96 h, 4 days. Format: cell-based. Here is the method:
as §1, §2

pIC50: −log10 of the molar value. Some results are limits rather than exact numbers.

The IC50 is the concentration needed to halve the response being measured. Lower therefore signals higher potency. In the case of `CC(C)CONC(=O)c1ccncc1Nc1ccc(I)cc1Cl` [Example 78], the IC50 was 3 to 10 µM with Murine colon C26 cells and at most 3 µM in assay [1]. For the same compound, at human MEK1, the pIC50 is above 6.00.

Regarding `Cc1cc(I)ccc1Nc1cnccc1C(=O)O` [Example 3, 3-[(4-Iodo-2-methylphenyl)amino]isonicotinic acid], at human MEK1, the pIC50 is above 6.00.

For `CN(C)c1ccc(-c2cc(C(=O)O)c(Nc3ccc(I)cc3F)cn2)cc1` [Example 57, 2-[4-(dimethylamino)phenyl]-5-[(2-fluoro-4-iodophenyl)amino]-isonicotinic acid], the pIC50 at human MEK1 is 5.00 to 6.00. In the case of `CC1(C)OC[C@H](CONC(=O)c2cc(Br)ncc2Nc2ccc(I)cc2F)O1` [Example 69, 2-bromo-N-{[(4R)-2,2-dimethyl-1,3-dioxolan-4-yl]methoxy}-5-[(2-fluoro-4-iodophenyl)amino]isonicotinamide], the IC50 in the assay on Murine colon C26 cells is 3 to 10 µM; in assay [1], at most 3 µM. Also, the pIC50 at human MEK1 was above 6.00. For `COc1ccc(Nc2cnccc2C(=O)O)cc1` [Example 118, 3-(4-Methoxy-phenylamino)-isonicotinic acid], the pIC50 at human MEK1 was 5.00 to 6.00. Still for that read-out and setting: to `CCONC(=O)c1cc[n+]([O-])cc1Nc1ccc(Br)cc1C` [Example 6, 3-[(4-Bromo-2-methylphenyl)amino]-N-ethoxyisonicotinamide 1-oxide] belongs 5.00 to 6.00; to `CCOC(CCCNC(=O)c1ccncc1Nc1ccc(I)cc1F)OCC` [Example 107, N-(4,4-diethoxybutyl)-3-[(2-fluoro-4-iodophenyl)amino]-isonicotinamide], above 6.00. On the same count and under the same terms, to `COc1ccc(-c2cc(C(=O)O)c(Nc3ccc(I)cc3F)cn2)cc1` [Example 52, 5-[(2-fluoro-4-iodophenyl)amino]-2-(4-methoxyphenyl)isonicotinic acid] belongs 5.00 to 6.00; to `O=C(N[C@H]1CCCC[C@@H]1O)c1ccncc1Nc1ccc(I)cc1F` (relative stereo) [Example 113, 3-(2-Fluoro-4-iodo-phenylamino)-N-(trans-2-hydroxy-cyclohexyl)-isonicotinamide], above 6.00.

On to `Cc1cc(Br)ccc1Nc1cnccc1C(=O)O` [Example 2, 3-[(4-Bromo-2-methylphenyl)amino]isonicotinic acid], for which the pIC50 on human MEK1 was above 6.00. Same read-out and setting: under `CC1(C)OC[C@H](CONC(=O)c2ccnc(Cl)c2Nc2ccc(I)cc2F)O1` [Example 38, 2-Chloro-N-{[(4R)-2,2-dimethyl-1,3-dioxolan-4-yl]methoxy}-3-(2-fluoro-4-iodo-phenylamino)-isonicotinamide] stands 5.00 to 6.00; under `O=C(NCc1cc(F)cc(C(F)(F)F)c1)c1ccncc1Nc1ccc(I)cc1F` [Example 105, 3-[(2-fluoro-4-iodophenyl)amino]-N-[3-fluoro-5-(trifluoromethyl)-benzyl]isonicotinamide], above 6.00. For the compound `O=C(NOCc1c(F)c(F)c(F)c(F)c1F)c1ccncc1Nc1ccc(I)cc1F` [Example 103, 3-[(2-fluoro-4-iodophenyl)amino]-N-[(pentafluorobenzyl)oxy]-isonicotinamide], at human MEK1, the pIC50 is above 6.00. `O=C(NCc1cccc(I)c1)c1ccncc1Nc1ccc(I)cc1F` [Example 94, 3-[(2-fluoro-4-iodophenyl)amino]-N-(3-iodobenzyl)isonicotin-amide]: the pIC50 on human MEK1 was above 6.00. For the same compound, in assay [1], the IC50 was 3 to 10 µM.

In the case of `CCC(CO)(CO)NC(=O)c1ccncc1Nc1ccc(I)cc1F` [Example 114, N-(1,1-Bis-hydroxymethyl-propyl)-3-(2-fluoro-4-iodo-phenyl-amino)-isonicotin-amide], at human MEK1, the pIC50 is above 6.00. In the case of `C#Cc1ccc(Nc2cnccc2C(=O)NOC[C@H](O)CO)c(Cl)c1` [Example 54, 3-(2-Chloro-4-ethynyl-phenylamino)-N-(2,3-dihydroxy-propoxy)-isonicotinamide], the pIC50 at human MEK1 is 5.00 to 6.00. This compound also returned a half-inhibitory concentration (IC50) in assay [1] of 3 to 10 µM.

With `O=C(O)c1ccncc1Nc1ccc(SC(F)(F)F)cc1` [Example 119, 3-(4-Trifluoromethylsulfanyl-phenylamino)-isonicotinic acid], the pIC50 on human MEK1 was 5.00 to 6.00. Same read-out and setting: under `CC1(C)OC[C@H](CONC(=O)c2cc[n+]([O-])cc2Nc2ccc(I)cc2F)O1` [Example 89, N-(2,2-Dimethyl-[1,3]dioxolan-4-ylmethoxy)-3-(2-fluoro-4-iodo-phenylamino)-1-oxy-isonicotinamide] stands 5.00 to 6.00. The same measure, in the same setting: under `O=C(O)c1ccncc1Nc1ccc(I)cc1` [Example 73, 3-(4-iodo-phenylamino)-isonicotinic acid] stands above 6.00; under `O=C(NC1(CO)CCCC1)c1ccncc1Nc1ccc(I)cc1F` [Example 110, 3-(2-Fluoro-4-iodo-phenylamino)-N-(1-hydroxymethyl-cyclo-pentyl)-isonicotinamide], above 6.00. For the compound `CCONC(=O)c1ccncc1Nc1ccc(Br)cc1F` [Example 121, 3-[(4-Bromo-2-fluorophenyl)amino]-N-ethoxyisonicotinamide], the pIC50 on human MEK1 was above 6.00. Still for that read-out and setting: under `Cc1nccc(C(=O)O)c1Nc1ccc(I)cc1F` [Example 95, 3-(2-Fluoro-4-iodo-phenylamino)-2-methyl-isonicotinic acid] stands above 6.00; under `O=C(NC1CCc2ccccc21)c1ccncc1Nc1ccc(I)cc1F` (stereo not shown) [Example 59, N-(2,3-dihydro-1H-inden-1-yl)-3-[(2-fluoro-4-iodophenyl)amino]-isonicotinamide], 5.00 to 6.00.

For the compound `O=C(NOC1CCCCO1)c1ccncc1Nc1ccc(I)cc1F` (stereo not shown) [Example 84, 3-[(2-fluoro-4-iodophenyl)amino]-N-(tetrahydro-2H-pyran-2-yloxy)-isonicotin-amide], the IC50 in the assay on Murine colon C26 cells is 3 to 10 µM; in assay [1], at most 3 µM. On human MEK1, the pIC50 was above 6.00. Turning to `O=C(NCCCN1CCNCC1)c1ccncc1Nc1ccc(I)cc1F` [Example 116, 3-(2-Fluoro-4-iodo-phenylamino)-N-(3-piperazin-1-yl-propyl)-isonicotinamide], the pIC50 on human MEK1 was above 6.00. Turning to `CC1(C)OC[C@@H](CONC(=O)c2ccncc2Nc2ccc(I)cc2F)O1` [Example 63, N-{[(4S)-2,2-dimethyl-1,3-dioxolan-4-yl]methoxy}-3-[(2-fluoro-4-iodophenyl)amino]isonicotinamide], the pIC50 at human MEK1 is above 6.00. Further, the 50% inhibitory concentration (IC50) in assay [1] is at most 3 µM. `O=C(O)c1ccncc1Nc1ccc(Cl)cc1Cl` [Example 1, 3-[(2,4-Dichlorophenyl)amino]isonicotinic acid]: the pIC50 on human MEK1 was above 6.00. On the same count and under the same terms, to `Cc1cc(C(=O)O)c(Nc2ccc(I)cc2F)cn1` [Example 111, 5-[(2-fluoro-4-iodophenyl)amino]-2-methylisonicotinic acid] belongs above 6.00; to `O=C(NCc1cccc(O)c1)c1ccncc1Nc1ccc(I)cc1F` [Example 106, 3-[(2-fluoro-4-iodophenyl)amino]-N-(3-hydroxybenzyl)-isonicotinamide], above 6.00; to `COc1cccc(NC(=O)c2ccncc2Nc2ccc(I)cc2F)c1` [Example 104, 3-[(2-fluoro-4-iodophenyl)amino]-N-(3-methoxyphenyl)-isonicotinamide], above 6.00. Still for that read-out and setting: under `NC(=O)[C@H](CO)NC(=O)c1ccncc1Nc1ccc(I)cc1F` [Example 112, N-(1-(S)-Carbamoyl-2-hydroxy-ethyl)-3-(2-fluoro-4-iodo-phenylamino)-isonicotinamide] stands above 6.00; under `O=C(O)c1ccnc(Cl)c1Nc1ccc(Br)cc1F` [Example 125, 3-(4-Bromo-2-fluoro-phenylamino)-2-chloro-isonicotinic acid], above 6.00; under `O=C(NCc1ccc(F)cc1)c1ccncc1Nc1ccc(I)cc1F` [Example 108, N-(4-Fluoro-benzyl)-3-(2-fluoro-4-iodo-phenylamino)-iso-nicotinamide], above 6.00. Same read-out and setting: under `O=C(NCC(F)(F)F)c1ccncc1Nc1ccc(I)cc1F` [Example 109, 3-(2-Fluoro-4-iodo-phenylamino)-N-(2,2,2-trifluoro-ethyl)-isonicotinamide] stands above 6.00. In the case of `O=C(NC1CCCCC1)c1ccncc1Nc1ccc(I)cc1F` [Example 61, N-cyclohexyl-3-[(2-fluoro-4-iodophenyl)amino]isonicotinamide], the pIC50 at human MEK1 was above 6.00. Further, the IC50 in assay [1] was in the range of 3 to 10 µM. Taken in the same sequence, the figures for `O=C(NO)c1ccncc1Nc1ccc(I)cc1F` [Example 66, 3-[(2-fluoro-4-iodophenyl)amino]-N-hydroxyisonicotinamide] were above 6.00 and at most 3 µM. For `CN(CCO)C(=O)c1ccncc1Nc1ccc(I)cc1F` [Example 37], the pIC50 on human MEK1 is above 6.00.

For the compound `O=c1[nH]nc(-c2ccncc2Nc2ccc(Br)cc2F)o1` [Example 126, 5-[3-(4-Bromo-2-fluoro-phenylamino)-pyridin-4-yl]-3H-[1,3,4]oxadiazol-2-one], the pIC50 at human MEK1 is 5.00 to 6.00.

The values are drawn from patent US8524911B2, “3-arylamino pyridine derivatives” (Merck Serono SA, priority 2004, dated 2013).
